Experiments:
GluA3 = target: T1, GluA3 (Rattus norvegicus, UniProt P19492); assay: Whole-cell current recording, GluA3; assay type: cell-based
T1 construct: expressed in transfected cells; host or cells: HEK-293S
Source text: (§1) The original cDNAs in pBlueScript encoding rat GluA1, 2 and 3 AMPA receptors and GluK2 kainate receptor were kindly provided by Steve Heinemann. The GluA4 DNA plasmid was kindly provided by Peter Seeburg. The GluK1 plasmid was kindly provided by Geoffrey Swanson. The cDNAs of all three NMDA receptor subunits were gifts from John Woodward. All DNA plasmids were propagated using Escherichia coli host (DH5α) and purified using QIAGEN DNA purification kits.
(§2) All of the receptors were transiently expressed in HEK-293S cell. HEK-293S cells were maintained in Dulbecco's modified Eagle's medium (DMEM) supplemented with 10% fetal bovine serum and 1% penicillin in a 37° C., 5% CO2, humidified incubator. Receptors were transiently transfected by using calcium phosphate or lipofectamine 2000 (Invitrogen). The DNA plasmids encoding green fluorescent protein (GFP) and T-antigen (TAg) were cotransfected in HEK-293 S cells. […]
(§3) The procedure for whole-cell current recording to assay the inhibitory property of an RNA aptamer is known to those of skill in the art and has been previously described^7. […] The whole-cell current was recorded using an Axopatch-200B amplifier at a cutoff frequency of 2-20 kHz by a built-in, eight-pole Bessel filter and digitized at 5-50 kHz sampling frequency using a Digidata 1322A from Axon Instruments (Molecular Devices, Sunnyvale, Calif.). […]

GluN1a/2A = target: T2, GluN1a/2A (Rattus norvegicus, UniProt P35439+Q00959); assay: Whole-cell current recording, NMDA receptor GluN1a/2A; assay type: cell-based
T2 construct: expressed in transfected cells; host or cells: HEK-293S
Source text: as §1, §2, §3

GluA2Qflip = target: T3, GluA2Qflip (Rattus norvegicus, UniProt P19491); assay: Homologous competitive binding assay (32P-labeled aptamer, membrane-bound receptor)
T3 construct: expressed in transfected cells; host or cells: HEK-293S
Experimental: Whether AG56 bound to the close-channel state or conformation, and if so, the affinity of binding were assayed by homologous competitive binding assay using ^32P-label^4. To do this, RNA was first dephosphorylated by using calf intestinal phosphatase (CIP), prior to the 5′-end ^32P-labeling^5. Labeled RNA was passed through a NucAway spin column (Applied Biosystem) to remove excess γ-^32P-ATP. Then, 1 μl of 10 nM of ^32P-labeled aptamer was mixed with 2 μg of yeast tRNA (Sigma) and a series of concentrations of unlabeled (cold) aptamer whose concentrations varied from 0-400 nM in the final reaction mix. The mixed aptamer sample was incubated first at 70° C. for 10 min and then at room temperature for 20 min, before mixed with the receptor. For receptor preparation, […] of the membrane-bound receptor was resuspended in 1× extracellular buffer with and without 1 mM of kainate (which corresponded to the open-channel state and the closed-channel state, respectively; for the latter, it corresponded to precisely the unliganded, closed-channel state). The final concentration for the receptor and for the hot aptamer, after mixing, was 0.4 nM and 0.1 nM, respectively. The mixture was incubated at 22° C. for 1 hour for binding. […] The radioactivity on the filter was quantified in a scintillation counter (Beckman LS6500). […]

GluA4 = target: T4, GluA4 (Rattus norvegicus, UniProt P19493); assay: Whole-cell current recording, GluA4; assay type: cell-based
T4 construct: expressed in transfected cells; host or cells: HEK-293S
Source text: as §1
All of the receptors were transiently expressed in HEK-293S cell. HEK-293S cells were maintained in Dulbecco's modified Eagle's medium (DMEM) supplemented with 10% fetal bovine serum and 1% penicillin in a 37° C., 5% CO2, humidified incubator. Receptors were transiently transfected by using calcium phosphate or lipofectamine 2000 (Invitrogen). The DNA plasmids encoding green fluorescent protein (GFP) and T-antigen (TAg) were cotransfected in HEK-293 S cells. GFP was used as a transfection marker for cell recording, and TAg was cotransfected to potentiate the receptor expression at the single-cell level^6. Transfected cells were allowed to grow for 48 hour before they were used for recording.
The procedure for whole-cell current recording to assay the inhibitory property of an RNA aptamer is known to those of skill in the art and has been previously described^7. […] The extracellular buffer composition is described above (see “Receptor Preparation”). For recording of the NMDA channels, the intracellualr solution contained (in mM) 140 CsCl, 1 MgCl2, 0.1 EGTA, and 10 HEPES (pH 7.2 adjusted by […]), while the extracellular solution contained (in mM) 135 NaCl, 5.4 KCl, 1.8 CaCl2, 10 glucose and 5 HEPES (pH 7.2 adjusted by NaOH). In the extracellular buffer, 2 μM of glycine was added (glycine was the co-agonist of NMDA receptor)^2. All reagents including aptamer were dissolved in the corresponding extracellular buffer and used. […] The whole-cell current was recorded using an Axopatch-200B amplifier at a cutoff frequency of 2-20 kHz by a built-in, eight-pole Bessel filter and digitized at 5-50 kHz sampling frequency using a Digidata 1322A from Axon Instruments (Molecular Devices, Sunnyvale, Calif.). The pClamp 8 software (Molecular Devices) was used for data acquisition. All whole-cell recordings were at −60 mV and 22° C.

GluN1a/2B = target: T5, GluN1a/2B (Rattus norvegicus, UniProt P35439+Q00960); assay: Whole-cell current recording, NMDA receptor GluN1a/2B; assay type: cell-based
T5 construct: expressed in transfected cells; host or cells: HEK-293S
Source text: as §1, §2, §3

GluK2 = target: T6, GluK2 (Rattus norvegicus, UniProt P42260); assay: Whole-cell current recording, kainate receptor GluK2; assay type: cell-based
T6 construct: expressed in transfected cells; host or cells: HEK-293S
Source text: as §1, §2, §3

GluA1 = target: T7, GluA1 (Rattus norvegicus, UniProt P19490); assay: Whole-cell current recording, GluA1; assay type: cell-based
T7 construct: expressed in transfected cells; host or cells: HEK-293S
Source text: as §1, §2, §3

GluK1 = assay: Whole-cell current recording, kainate receptor GluK1; assay type: cell-based
Source text: as §1, §2, §3

T4 sequence (P19493 21-902): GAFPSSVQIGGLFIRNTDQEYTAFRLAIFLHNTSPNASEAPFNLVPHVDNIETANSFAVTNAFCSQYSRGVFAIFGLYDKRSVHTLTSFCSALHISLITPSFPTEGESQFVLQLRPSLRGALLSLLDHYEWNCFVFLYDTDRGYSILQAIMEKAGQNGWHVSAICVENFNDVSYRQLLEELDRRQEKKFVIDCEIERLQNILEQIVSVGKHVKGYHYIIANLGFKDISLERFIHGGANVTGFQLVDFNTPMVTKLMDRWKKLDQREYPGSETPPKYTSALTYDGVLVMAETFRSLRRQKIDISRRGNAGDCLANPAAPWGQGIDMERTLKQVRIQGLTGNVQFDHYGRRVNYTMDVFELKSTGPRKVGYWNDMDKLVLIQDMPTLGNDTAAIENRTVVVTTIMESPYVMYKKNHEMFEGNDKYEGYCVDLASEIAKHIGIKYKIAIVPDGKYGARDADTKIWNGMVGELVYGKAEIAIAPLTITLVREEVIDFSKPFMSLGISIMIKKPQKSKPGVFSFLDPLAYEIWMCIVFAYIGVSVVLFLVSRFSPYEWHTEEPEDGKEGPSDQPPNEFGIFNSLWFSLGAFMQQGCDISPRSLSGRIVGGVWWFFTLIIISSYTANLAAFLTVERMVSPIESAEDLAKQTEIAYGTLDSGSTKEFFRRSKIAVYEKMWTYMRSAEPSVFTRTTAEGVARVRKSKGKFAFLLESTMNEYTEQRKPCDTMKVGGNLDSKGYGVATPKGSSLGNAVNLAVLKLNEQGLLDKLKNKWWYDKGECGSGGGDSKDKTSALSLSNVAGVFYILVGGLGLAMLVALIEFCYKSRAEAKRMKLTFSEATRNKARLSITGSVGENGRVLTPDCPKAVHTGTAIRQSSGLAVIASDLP
T7 sequence (P19490 19-907): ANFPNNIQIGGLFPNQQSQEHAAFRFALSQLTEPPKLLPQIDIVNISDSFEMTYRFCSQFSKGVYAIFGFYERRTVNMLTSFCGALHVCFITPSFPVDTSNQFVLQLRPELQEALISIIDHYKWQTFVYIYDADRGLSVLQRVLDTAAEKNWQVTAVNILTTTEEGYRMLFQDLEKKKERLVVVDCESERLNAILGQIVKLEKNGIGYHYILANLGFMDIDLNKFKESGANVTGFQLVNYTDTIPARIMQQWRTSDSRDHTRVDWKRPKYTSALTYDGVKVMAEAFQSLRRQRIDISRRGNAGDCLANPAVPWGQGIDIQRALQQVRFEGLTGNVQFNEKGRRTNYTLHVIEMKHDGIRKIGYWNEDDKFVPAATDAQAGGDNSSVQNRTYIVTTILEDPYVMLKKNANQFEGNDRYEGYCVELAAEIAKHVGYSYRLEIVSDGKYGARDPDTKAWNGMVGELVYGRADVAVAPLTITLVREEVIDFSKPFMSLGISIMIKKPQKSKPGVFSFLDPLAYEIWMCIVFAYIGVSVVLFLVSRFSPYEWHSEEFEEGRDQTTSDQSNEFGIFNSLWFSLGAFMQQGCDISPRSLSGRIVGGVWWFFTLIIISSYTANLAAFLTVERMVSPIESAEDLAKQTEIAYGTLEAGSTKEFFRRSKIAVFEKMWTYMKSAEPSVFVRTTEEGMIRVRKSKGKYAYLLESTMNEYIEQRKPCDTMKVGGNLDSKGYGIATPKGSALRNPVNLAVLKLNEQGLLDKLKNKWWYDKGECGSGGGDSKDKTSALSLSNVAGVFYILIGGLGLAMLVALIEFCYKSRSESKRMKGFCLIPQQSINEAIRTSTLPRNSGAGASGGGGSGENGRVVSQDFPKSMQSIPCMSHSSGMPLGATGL
T3 sequence (P19491 22-883 isoform P19491-2): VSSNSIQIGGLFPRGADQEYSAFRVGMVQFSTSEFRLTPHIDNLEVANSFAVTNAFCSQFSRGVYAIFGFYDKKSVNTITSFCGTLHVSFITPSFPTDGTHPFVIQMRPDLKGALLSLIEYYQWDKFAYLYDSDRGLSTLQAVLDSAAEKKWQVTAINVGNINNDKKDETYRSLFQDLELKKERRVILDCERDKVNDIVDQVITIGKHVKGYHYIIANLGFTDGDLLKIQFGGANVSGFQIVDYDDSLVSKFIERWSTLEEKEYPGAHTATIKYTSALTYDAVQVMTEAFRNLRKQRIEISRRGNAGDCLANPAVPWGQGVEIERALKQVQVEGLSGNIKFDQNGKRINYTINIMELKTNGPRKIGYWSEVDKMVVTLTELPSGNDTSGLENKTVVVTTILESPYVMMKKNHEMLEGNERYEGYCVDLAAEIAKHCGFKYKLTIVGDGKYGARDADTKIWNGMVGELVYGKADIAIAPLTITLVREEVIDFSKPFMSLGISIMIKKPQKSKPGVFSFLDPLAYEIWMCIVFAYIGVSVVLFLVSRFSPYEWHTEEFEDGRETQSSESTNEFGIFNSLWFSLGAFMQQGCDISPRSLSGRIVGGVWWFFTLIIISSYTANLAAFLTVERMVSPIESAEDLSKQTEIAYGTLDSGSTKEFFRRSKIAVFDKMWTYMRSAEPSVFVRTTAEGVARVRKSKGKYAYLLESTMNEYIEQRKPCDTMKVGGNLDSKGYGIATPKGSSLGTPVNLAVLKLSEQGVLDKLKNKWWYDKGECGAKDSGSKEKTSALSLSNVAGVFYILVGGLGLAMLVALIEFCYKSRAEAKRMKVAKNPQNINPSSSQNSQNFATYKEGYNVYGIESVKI
T1 sequence (P19492 23-888): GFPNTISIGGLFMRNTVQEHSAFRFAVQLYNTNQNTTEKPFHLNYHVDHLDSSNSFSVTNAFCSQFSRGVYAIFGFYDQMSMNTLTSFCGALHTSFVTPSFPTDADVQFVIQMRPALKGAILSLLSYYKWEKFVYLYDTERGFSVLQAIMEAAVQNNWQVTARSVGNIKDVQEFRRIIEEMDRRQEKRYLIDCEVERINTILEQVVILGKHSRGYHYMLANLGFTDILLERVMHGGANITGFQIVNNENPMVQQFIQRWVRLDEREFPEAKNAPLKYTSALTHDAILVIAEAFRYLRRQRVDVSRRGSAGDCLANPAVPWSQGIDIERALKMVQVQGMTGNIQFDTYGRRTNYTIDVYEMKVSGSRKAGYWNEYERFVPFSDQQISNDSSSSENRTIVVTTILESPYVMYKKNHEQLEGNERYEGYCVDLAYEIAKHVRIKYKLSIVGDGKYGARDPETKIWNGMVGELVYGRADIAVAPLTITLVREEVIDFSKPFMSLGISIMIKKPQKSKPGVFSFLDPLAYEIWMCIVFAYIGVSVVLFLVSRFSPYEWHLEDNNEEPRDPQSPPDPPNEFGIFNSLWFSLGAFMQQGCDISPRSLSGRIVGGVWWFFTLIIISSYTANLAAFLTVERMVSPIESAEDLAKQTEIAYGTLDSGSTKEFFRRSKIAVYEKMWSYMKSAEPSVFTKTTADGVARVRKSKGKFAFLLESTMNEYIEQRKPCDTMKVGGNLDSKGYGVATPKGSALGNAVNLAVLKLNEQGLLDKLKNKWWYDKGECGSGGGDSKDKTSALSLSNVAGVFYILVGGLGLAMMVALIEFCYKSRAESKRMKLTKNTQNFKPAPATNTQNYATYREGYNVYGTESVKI
T5 sequence (Q00960 27-1482, other chains not shown): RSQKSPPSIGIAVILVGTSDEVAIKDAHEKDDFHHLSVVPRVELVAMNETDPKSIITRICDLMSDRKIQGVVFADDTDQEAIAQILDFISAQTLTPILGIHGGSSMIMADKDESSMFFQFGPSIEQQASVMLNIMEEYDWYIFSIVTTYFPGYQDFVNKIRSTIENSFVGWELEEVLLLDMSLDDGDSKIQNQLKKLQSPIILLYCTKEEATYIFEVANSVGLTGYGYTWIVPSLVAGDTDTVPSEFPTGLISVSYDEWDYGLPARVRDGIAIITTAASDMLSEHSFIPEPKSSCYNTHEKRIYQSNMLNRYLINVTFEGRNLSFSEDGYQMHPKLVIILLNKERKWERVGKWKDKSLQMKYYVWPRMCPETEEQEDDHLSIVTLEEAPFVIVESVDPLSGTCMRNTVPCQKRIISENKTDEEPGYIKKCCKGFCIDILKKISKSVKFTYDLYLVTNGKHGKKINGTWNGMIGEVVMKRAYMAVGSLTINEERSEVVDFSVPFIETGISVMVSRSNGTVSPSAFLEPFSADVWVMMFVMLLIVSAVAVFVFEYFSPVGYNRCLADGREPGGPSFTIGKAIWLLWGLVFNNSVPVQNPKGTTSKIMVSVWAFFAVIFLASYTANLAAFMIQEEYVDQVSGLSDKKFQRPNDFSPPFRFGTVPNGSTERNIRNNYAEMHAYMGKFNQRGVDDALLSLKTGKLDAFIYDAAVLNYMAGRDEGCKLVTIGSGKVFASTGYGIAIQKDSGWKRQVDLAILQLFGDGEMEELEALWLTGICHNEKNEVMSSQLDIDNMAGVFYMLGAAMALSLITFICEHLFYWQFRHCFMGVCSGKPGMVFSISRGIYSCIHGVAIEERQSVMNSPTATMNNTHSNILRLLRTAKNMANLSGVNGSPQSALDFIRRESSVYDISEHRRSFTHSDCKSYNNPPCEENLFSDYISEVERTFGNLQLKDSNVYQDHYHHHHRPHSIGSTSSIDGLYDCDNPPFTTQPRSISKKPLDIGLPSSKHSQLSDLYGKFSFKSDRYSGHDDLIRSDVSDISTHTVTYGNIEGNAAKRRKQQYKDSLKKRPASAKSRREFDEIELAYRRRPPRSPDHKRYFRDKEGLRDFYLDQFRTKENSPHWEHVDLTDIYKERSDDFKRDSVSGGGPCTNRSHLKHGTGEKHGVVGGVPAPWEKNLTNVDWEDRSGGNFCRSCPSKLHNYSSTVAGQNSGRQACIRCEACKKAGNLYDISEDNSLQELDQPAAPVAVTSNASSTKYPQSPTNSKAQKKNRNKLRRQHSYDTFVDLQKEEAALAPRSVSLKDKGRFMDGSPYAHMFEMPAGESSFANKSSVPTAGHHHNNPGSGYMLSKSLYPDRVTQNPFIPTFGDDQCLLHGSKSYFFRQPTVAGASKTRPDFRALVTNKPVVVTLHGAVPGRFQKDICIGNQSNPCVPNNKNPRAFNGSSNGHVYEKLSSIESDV

Substance: AG56: 56-nucleotide truncated version of AG1407, RNA aptamer (GGGAGAUUGUGAAGCGUAGGCUCGAGUUUGUCCCGCGAGCCAAAGAUUCCAGACCC; RNA, backbone not given here)
- inhibition of the closed-channel conformation (GluA3): no inhibitory effect
- inhibition of the open-channel conformation (GluA3): similarly inhibited the open-channel conformation
- effect on NMDA receptor channel (GluN1a/2A): did not affect
- Kd (GluA2Qflip; open-channel conformation (1 mM kainate)): 80 ± 23 nM
- Kd (GluA2Qflip; unliganded, closed-channel conformation (without kainate)): 68 ± 40 nM
- A/A(I) (GluA4; 0.5 μM AG56, 3 mM glutamate, open-channel GluA4): not significantly larger than 1.0
- A/A(I) ratio (GluA4; 1 μM AG56, 3 mM glutamate, open-channel GluA4): 1.2
- inhibition of the closed-channel conformation (GluA4; GluA4): no inhibitory effect
- inhibition of the open-channel conformation (GluA4; GluA4): weak
- effect on NMDA receptor channel (GluN1a/2B): did not affect
- effect on kainate receptor channel (GluK2): did not affect
- inhibition of the closed-channel conformation (GluA1): no inhibitory effect
- inhibition of the open-channel conformation (GluA1): similarly inhibited the open-channel conformation
- effect on kainate receptor channel (GluK1): did not affect

Source: patent US8748407B2 (The Research Foundation for the State University of New York, priority 2010, dated 2014)
